According to patent US7709481B2, “Phenyl-1,2,4-oxadiazolone derivatives, processes for their preparation and methods for their use as pharmaceuticals” (Sanofi-Aventis, priority 2005, dated 2010):
Read-outs that look alike come from different tables or passages of the source.

Legend:
human PPARalpha = target: T1, human PPARalpha (Homo sapiens, UniProt Q07869); experiment: Cellular PPARalpha assay (HEK PPARalpha reporter cell line, luciferase); type: cell-based; conditions: 24 h incubation
T1 construct: human PPARalpha receptor (amino acids S167-Y468); expressed in transfected cells; plasmid pcDNA3
T1 sequence (Q07869 167-468): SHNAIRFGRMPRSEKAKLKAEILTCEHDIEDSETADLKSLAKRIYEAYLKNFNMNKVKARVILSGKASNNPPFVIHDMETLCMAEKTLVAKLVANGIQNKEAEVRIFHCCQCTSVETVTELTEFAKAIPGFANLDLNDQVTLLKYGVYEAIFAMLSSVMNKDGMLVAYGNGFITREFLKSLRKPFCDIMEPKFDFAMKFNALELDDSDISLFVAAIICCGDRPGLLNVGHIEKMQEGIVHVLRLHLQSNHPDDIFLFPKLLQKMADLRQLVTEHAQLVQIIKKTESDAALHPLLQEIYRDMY
Experimental: The activity of the compounds was tested as follows. The potency of substances which bind to human PPARalpha and activate it in an agonistic manner is analyzed using a stably transfected HEK cell line (HEK=human embryo kidney) which is referred to here as PPARalpha reporter cell line. It contains two genetic elements, a luciferase reporter element (pdeltaM-GAL4-Luc-Zeo) and a PPARalpha fusion protein (GR-GAL4-humanPPARalpha-LBD) which mediates expression of the luciferase reporter element depending on a PPARalpha ligand. The stably and constitutively expressed fusion protein GR-GAL4-humanPPARalpha-LBD binds in the cell nucleus of the PPARalpha reporter cell line via the GAL4 protein portion to the GAL4 DNA binding motifs 5′-upstream of the luciferase reporter element which is stably integrated in the genome of the cell line. There is only weak expression of the luciferase reporter gene in the absence of a PPARalpha ligand if fatty acid-depleted fetal calf serum (cs-FCS) is used in the assay. PPARalpha ligands bind and activate the PPARalpha fusion protein and thereby stimulate the expression of the luciferase reporter gene. The luciferase which is formed can be detected by means of chemiluminescence via an appropriate substrate.
The PPARalpha reporter cell line was prepared in two stages. Firstly, the luciferase reporter element was constructed and stably transfected into HEK cells. For this purpose, five binding sites of the yeast transcription factor GAL4 (Accession # AF264724) were cloned in 5′-upstream of a 68 bp-long minimal MMTV promoter (Accession # V01175). The minimal MMTV promoter section contains a CCAAT box and a TATA element in order to enable efficient transcription by RNA polymerase II. The cloning and sequencing of the GAL4-MMTV construct took place in analogy to the description of Sambrook J. et. al. (Molecular cloning, Cold Spring Harbor Laboratory Press, 1989). Then the complete Photinus pyralis gene (Accession # M15077) was cloned in 3′-downstream of the GAL4-MMTV element. After sequencing, the luciferase reporter element consisting of five GAL4 binding sites, MMTV promoter and luciferase gene was recloned into a plasmid which confers zeocin resistance in order to obtain the plasmid pdeltaM-GAL4-Luc-Zeo. This vector was transfected into HEK cells in accordance with the statements in Ausubel, F. M. et al. (Current protocols in molecular biology, Vol. 1-3, John Wiley & Sons, Inc., 1995).
In a second step, the PPARalpha fusion protein (GR-GAL4-humanPPARalpha-LBD was introduced into the stable cell clone described. For this purpose, initially the cDNA coding for the N-terminal 76 amino acids of the glucocorticoid receptor (Accession # P04150) was linked to the cDNA section coding for amino acids 1-147 of the yeast transcription factor GAL4 (Accession # P04386). The cDNA of the ligand-binding domain of the human PPARalpha receptor (amino acids S167-Y468; Accession # S74349) was cloned in at the 3′-end of this GR-GAL4 construct. The fusion construct prepared in this way (GR-GAL4-humanPPARalpha-LBD) was recloned into the plasmid pcDNA3 (Invitrogen) in order to enable constitutive expression therein by the cytomegalovirus promoter. This plasmid was linearized with a restriction endonuclease and stably transfected into the previously described cell clone containing the luciferase reporter element. The finished PPARalpha reporter cell line which contains a luciferase reporter element and constitutively expresses the PPARalpha fusion protein (GR-GAL4-human PPARalpha-LBD) was isolated by selection with zeocin (0.5 mg/ml) and G418 (0.5 mg/ml).
The activity of PPARalpha agonists is determined in a 3-day assay which is described below: […]

human PPARdelta = target: T2, human PPARdelta (Homo sapiens, UniProt Q03181); experiment: Cellular PPARdelta assay (HEK PPARdelta reporter cell line, luciferase); type: cell-based; conditions: 24 h incubation
T2 construct: human PPARdelta receptor (amino acids S139-Y441); expressed in transfected cells; plasmid pcDNA3
T2 sequence (Q03181 139-441): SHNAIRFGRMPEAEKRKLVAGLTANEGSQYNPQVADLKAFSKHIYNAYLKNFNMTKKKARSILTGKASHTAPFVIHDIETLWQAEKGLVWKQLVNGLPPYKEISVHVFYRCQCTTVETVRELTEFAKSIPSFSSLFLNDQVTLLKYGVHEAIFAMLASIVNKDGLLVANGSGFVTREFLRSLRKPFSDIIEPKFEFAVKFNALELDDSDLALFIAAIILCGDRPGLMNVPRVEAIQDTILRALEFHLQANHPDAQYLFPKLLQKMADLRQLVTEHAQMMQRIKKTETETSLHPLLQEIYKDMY
Experimental: The raw data from the luminometer are transferred into a Microsoft Excel file. Dose-effect plots and EC50 values of PPAR agonists are calculated using the XL.Fit program as specified by the manufacturer (IDBS). […] Compounds of the invention of the formula I activate the PPARalpha receptor. Determination of EC50 values of PPAR agonists in the cellular PPARdelta assay The potency of substances which bind to human PPARdelta and activate it in an agonistic manner is analyzed using a stably transfected HEK cell line (HEK=human embryo kidney) which is referred to here as PPARdelta reporter cell line. In analogy to the assay described for PPARalpha, the PPARdelta reporter cell line also contains two genetic elements, a luciferase reporter element (pdeltaM-GAL4-Luc-Zeo) and a PPARdelta fusion protein (GR-GAL4-humanPPARdelta-LBD) which mediates expression of the luciferase reporter element depending on a PPARdelta ligand. The stably and constitutively expressed fusion protein GR-GAL4-humanPPARdelta-LBD binds in the cell nucleus of the PPARdelta reporter cell line via the GAL4 protein portion to the GAL4 DNA binding motifs 5′-upstream of the luciferase reporter element which is stably integrated in the genome of the cell line. There is only little expression of the luciferase reporter gene in the absence of a PPARdelta ligand if fatty acid-depleted fetal calf serum (cs-FCS) is used in the assay. PPARdelta ligands bind and activate the PPARdelta fusion protein and thereby stimulate expression of the luciferase reporter gene. The luciferase which is formed can be detected by means of chemiluminescence via an appropriate substrate.
The production of the stable PPARdelta reporter cell line is based on a stable HEK-cell clone which was stably transfected with a luciferase reporter element. This step was already described above in the section “construction of the PPARalpha reporter cell line”. In a second step, the PPARdelta fusion protein (GR-GAL4-humanPPARdelta-LBD was stably introduced into this cell clone. For this purpose, the cDNA coding for the N-terminal 76 amino acids of the glucocorticoid receptor (Accession # P04150) was linked to the cDNA section coding for amino acids 1-147 of the yeast transcription factor GAL4 (Accession # P04386). The cDNA of the ligand-binding domain of the human PPARdelta receptor (amino acids S139-Y441; Accession # L07592) was cloned in at the 3′-end of this GR-GAL4 construct. The fusion construct prepared in this way (GR-GAL4-humanPPARdelta-LBD) was recloned into the plasmid pcDNA3 (Invitrogen) in order to enable constitutive expression by the cytomegalovirus promoter. This plasmid was linearized with a restriction endonuclease and stably transfected into the previously described cell clone containing the luciferase reporter element. The resulting PPARdelta reporter cell line which contains a luciferase reporter element and constitutively expresses the PPARdelta fusion protein (GR-GAL4-human PPARdelta-LBD) was isolated by selection with zeocin (0.5 mg/ml) and G418 (0.5 mg/ml).
The activity of PPARdelta agonists is determined in a 3-day assay in exact analogy to the procedure already described for the PPARalpha reporter cell line except that the PPARdelta reporter cell line and a specific PPARdelta agonist was used as a standard to control test efficacy. PPARdelta EC50 values in the range from 0.3 nM to >10 μM were measured for the PPAR agonists of Examples 1 to 69 described in this application. Compounds of the invention of the formula I activate the PPARdelta receptor.

PPARdelta [1] = target: T3, PPARdelta (Mus musculus, UniProt P35396); conditions: diabetic animal model; cited from earlier work
T3 sequence (P35396 1-440): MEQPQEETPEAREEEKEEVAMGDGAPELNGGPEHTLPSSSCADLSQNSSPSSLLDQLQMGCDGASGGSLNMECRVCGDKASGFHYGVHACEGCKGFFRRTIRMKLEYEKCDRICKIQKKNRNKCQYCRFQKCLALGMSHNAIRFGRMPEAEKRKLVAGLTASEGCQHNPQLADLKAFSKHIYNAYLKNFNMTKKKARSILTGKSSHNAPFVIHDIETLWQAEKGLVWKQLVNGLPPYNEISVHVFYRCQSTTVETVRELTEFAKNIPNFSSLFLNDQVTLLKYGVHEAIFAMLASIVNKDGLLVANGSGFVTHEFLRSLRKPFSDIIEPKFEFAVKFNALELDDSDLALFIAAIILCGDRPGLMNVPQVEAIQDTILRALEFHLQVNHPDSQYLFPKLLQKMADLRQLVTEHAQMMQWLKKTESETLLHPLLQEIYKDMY

PPARdelta [2] = conditions: obese, insulin resistant rhesus monkeys; cited from earlier work
PPARdelta/PPARalpha [3] = conditions: rhesus and cynomolgus monkeys; cited from earlier work
PPARdelta/PPARalpha [4] = conditions: two weeks clinical trials in healthy volunteers; cited from earlier work

EC50 (human PPARalpha) [µM]	EC50 (human PPARdelta) [µM]	Compound	also measured
> 33	0.052	O=c1[nH]c(-c2cc(F)c(OCc3sc([C@H]4CC[C@H](C(F)(F)F)CC4)nc3CN3CCC(C(F)(F)F)CC3)cc2OC(F)F)no1 [Example 62, 3-{2-Difluoromethoxy-5-fluoro-4-[2-(trans-1,4-trifluoromethyl-cyclohexyl)-4-(4-trifluoromethyl-piperidin-1-ylmethyl)-thiazol-5-ylmethoxy]-phenyl}-4H-1,2,4-oxadiazol-5-one]	
0.304	0.011	CCC(Oc1ccc(-c2noc(=O)[nH]2)c(F)c1)c1sc([C@H]2CC[C@H](C(F)(F)F)CC2)nc1C (stereo partly drawn) [Example 66, 3-(2-Fluoro-4-{1-[4-methyl-2-(trans-1,4-trifluoromethyl-cyclohexyl)-thiazol-5-yl]-propoxy}-phenyl)-4H-1,2,4-oxadiazol-5-one]	
> 33	0.13	CCC(Oc1ccc(-c2noc(=O)[nH]2)c(F)c1)c1sc([C@H]2CC[C@H](C(F)(F)F)CC2)nc1CN1CCC(C(F)(F)F)CC1 (stereo partly drawn) [Example 68, 3-(2-Fluoro-4-{1-[2-(trans-1,4-trifluoromethyl-cyclohexyl)-4-(4-trifluoromethyl-piperidin-1-ylmethyl)-thiazol-5-yl]-propoxy}-phenyl)-4H-1,2,4-oxadiazol-5-one]	
		CCCc1c(OCCCOc2ccc(OCC(=O)O)cc2)ccc(C(C)=O)c1O [Example L-165041]	plasma cholesterol (PPARdelta [1]): raises plasma cholesterol
		Cc1cc(SCc2sc(-c3ccc(C(F)(F)F)cc3)nc2C)ccc1OCC(=O)O [GW501516]	HDL-cholesterol (PPARdelta [2]): raises HDL-cholesterol; plasma LDL-cholesterol, triglycerides and insulin levels (PPARdelta [2]): decreases plasma LDL-cholesterol, triglycerides and insulin levels
		CCCc1c(OCCCSc2nnc(SCC(=O)O)s2)ccc(C(C)=O)c1O [YM-16638]	plasma lipids (PPARdelta/PPARalpha [3]): significantly lowers plasma lipids; plasma lipids (PPARdelta/PPARalpha [4]): acts in a similar manner
